The source of these data is ChEMBL document CHEMBL5154808, “Novel β-Hairpin Antimicrobial Peptides Containing the β-Turn Sequence of -RRRF- Having High Cell Selectivity and Low Incidence of Drug Resistance” (J Med Chem, 2022).

Values after ≈ are worked out from the molar mass of the structure shown. Where a SMILES comes first, the peptide text is derived from it. Some results are limits rather than exact numbers.

One data set concerns Staphylococcus aureus. As to the kind of experiment: Antimicrobial activity against Staphylococcus aureus ATCC 25923 assessed as reduction of bacterial growth incubated for 18 hrs by CLSI protocol based broth microdilution method. It is filed as functional.
The subject of another data set is Bacillus subtilis. The data set is described as follows: Antimicrobial activity against Bacillus subtilis ATCC 23857 assessed as reduction of bacterial growth incubated for 18 hrs by CLSI protocol based broth microdilution method. It is filed as functional. For orientation: In broth dilution the organism is exposed to a series of concentrations in liquid medium.

Data set [1] relates to Staphylococcus epidermidis. The data set is described as follows: Antimicrobial activity against Staphylococcus epidermidis ATCC 12228 assessed as reduction of bacterial growth incubated for 18 hrs by CLSI protocol based broth microdilution method. It is filed as functional.
The next data set deals with Enterococcus faecalis. As to the kind of experiment: Antimicrobial activity against Enterococcus faecalis ATCC 29212 assessed as reduction of bacterial growth incubated for 18 hrs by CLSI protocol based broth microdilution method. It is filed as functional.
The subject of the next data set is Klebsiella pneumoniae. The data set is described as follows: Antimicrobial activity against Klebsiella pneumoniae ATCC 700603 assessed as reduction of bacterial growth incubated for 18 hrs by CLSI protocol based broth microdilution method. It is filed as functional.
Another data set deals with Escherichia coli. The data set is described as follows: Antimicrobial activity against Escherichia coli ATCC 25922 assessed as reduction of bacterial growth incubated for 18 hrs by CLSI protocol based broth microdilution method. The format is functional.
The subject of another data set is Pseudomonas aeruginosa. The data set is described as follows: Antimicrobial activity against Pseudomonas aeruginosa ATCC 27853 assessed as reduction of bacterial growth incubated for 18 hrs by CLSI protocol based broth microdilution method. It is filed as functional.
A further data set has as its system Erythrocyte. As to the kind of experiment: Hemolytic activity in mouse red blood cells assessed as release of hemoglobin incubated for 1 hr by microplate reader method. The format is toxicity, cell-based.
A short description of data set [2]: Cytotoxicity against human HK-2 cells assessed as reduction in cell viability incubated for 1 hr by resazurin based microplate reader method. The format is toxicity. A general note: Resazurin is reduced to fluorescent resorufin, in cell work by metabolically active cells.

One may read the MIC as the lowest concentration found to suppress growth. As usually defined, the CC50 is the concentration giving 50% cytotoxicity. `CC[C@H](C)[C@H](N)C(=O)N[C@@H](CCCNC(=N)N)C(=O)N[C@H](C(=O)N[C@@H](CCCNC(=N)N)C(=O)N[C@@H](CS)C(=O)N[C@@H](CCCNC(=N)N)C(=O)N[C@@H](CCCNC(=N)N)C(=O)N[C@@H](CCCNC(=N)N)C(=O)N[C@@H](Cc1ccccc1)C(=O)N[C@@H](CS)C(=O)N[C@@H](CCCNC(=N)N)C(=O)N[C@H](C(=O)N[C@@H](CCCNC(=N)N)C(=O)N[C@H](C(N)=O)[C@@H](C)CC)[C@@H](C)CC)[C@@H](C)CC` (H-IRIRCRRRFCRIRI-NH2): the MIC in the data set on Staphylococcus aureus is 8 µM (≈ 15.3 µg/mL); in the data set on Bacillus subtilis it was 4 µM (≈ 7.67 µg/mL); in data set [1] it was 4 µM (≈ 7.67 µg/mL); with Enterococcus faecalis, 16 µM (≈ 30.7 µg/mL); with Klebsiella pneumoniae, 8 µM (≈ 15.3 µg/mL); in the data set with Escherichia coli, 8 µM (≈ 15.3 µg/mL). In addition, in the data set with Pseudomonas aeruginosa, the MIC was 4 µM (≈ 7.67 µg/mL). Also, the HC10 in the data set on Erythrocyte is greater than 256 µM. Further, the CC50 at 1 h in [2] was determined as 37.1 µM.
As to `CC(C)C[C@H](NC(=O)[C@H](CCCNC(=N)N)NC(=O)CNC(=O)CNC(=O)[C@@H](N)CCCNC(=N)N)C(=O)N[C@@H](CS)C(=O)N[C@@H](Cc1ccc(O)cc1)C(=O)N[C@@H](CS)C(=O)N[C@@H](CCCNC(=N)N)C(=O)N[C@@H](CCCNC(=N)N)C(=O)N[C@@H](CCCNC(=N)N)C(=O)N[C@@H](Cc1ccccc1)C(=O)N[C@@H](CS)C(=O)N[C@H](C(=O)N[C@@H](CS)C(=O)N[C@H](C(=O)NCC(=O)N[C@@H](CCCNC(=N)N)C(N)=O)C(C)C)C(C)C` (H-RGGRLCYCRRRFCVCVGR-NH2), the MIC in the data set on Staphylococcus aureus is 8 µM (≈ 17.3 µg/mL); with Bacillus subtilis, 2 µM (≈ 4.32 µg/mL); in data set [1], 4 µM (≈ 8.64 µg/mL); with Enterococcus faecalis, 8 µM (≈ 17.3 µg/mL); in the data set with Klebsiella pneumoniae it was 8 µM (≈ 17.3 µg/mL); in the data set with Escherichia coli it was 8 µM (≈ 17.3 µg/mL). The MIC with Pseudomonas aeruginosa came to 4 µM (≈ 8.64 µg/mL). For the same compound, in the data set on Erythrocyte, the HC10 worked out at 20 µM. Besides, the CC50 at 1 h in data set [2] is 14.2 µM.
`CC[C@H](C)[C@H](NC(=O)CN)C(=O)NCC(=O)N[C@@H](C)C(=O)N[C@H](C(=O)N[C@@H](CC(C)C)C(=O)N[C@@H](CCCCN)C(=O)N[C@H](C(=O)N[C@@H](CC(C)C)C(=O)N[C@H](C(=O)N[C@H](C(=O)NCC(=O)N[C@@H](CC(C)C)C(=O)N1CCC[C@H]1C(=O)N[C@@H](C)C(=O)N[C@@H](CC(C)C)C(=O)N[C@H](C(=O)N[C@@H](CO)C(=O)N[C@@H](Cc1c[nH]c2ccccc12)C(=O)N[C@H](C(=O)N[C@@H](CCCCN)C(=O)N[C@@H](CCCNC(=N)N)C(=O)N[C@@H](CCCCN)C(=O)N[C@@H](CCCNC(=N)N)C(=O)N[C@@H](CCC(N)=O)C(=O)N[C@@H](CCC(N)=O)C(N)=O)[C@@H](C)CC)[C@@H](C)CC)[C@@H](C)O)[C@@H](C)O)C(C)C)C(C)C` [MELITTIN]: the MIC in the data set with Enterococcus faecalis came to 2 µM (≈ 5.69 µg/mL); in the data set on Klebsiella pneumoniae, 16 µM (≈ 45.5 µg/mL).
H-ARARRRRFRARA-NH2: the MIC with Staphylococcus aureus is 128 µM; in the data set with Bacillus subtilis, 64 µM; in data set [1], 128 µM; in the data set with Enterococcus faecalis it was greater than 128 µM; in the data set with Klebsiella pneumoniae it was greater than 128 µM; with Escherichia coli, greater than 128 µM. Moreover, the MIC in the data set on Pseudomonas aeruginosa was greater than 128 µM. Further, the HC10 with Erythrocyte is greater than 256 µM. For the same compound, in [2], the CC50 at 1 h was greater than 128 µM.
H-FRFRFRRRRFRFRFRF-NH2: the MIC in the data set on Staphylococcus aureus came out at 8 µM; with Bacillus subtilis it was 4 µM; in data set [1] it was 2 µM; with Enterococcus faecalis, 8 µM; with Klebsiella pneumoniae, 8 µM; in the data set on Escherichia coli it was 8 µM. Moreover, the MIC with Pseudomonas aeruginosa turned out to be 8 µM. The HC10 in the data set on Erythrocyte was greater than 256 µM. Further, in [2], the CC50 at 1 h turned out to be 10.3 µM.
Regarding H-FRFRRRRFRFRF-NH2, the MIC in the data set on Staphylococcus aureus was 4 µM; in the data set on Bacillus subtilis, 2 µM; in data set [1], 4 µM; with Enterococcus faecalis, 16 µM; with Klebsiella pneumoniae, 8 µM; in the data set on Escherichia coli, 8 µM. Moreover, the MIC in the data set on Pseudomonas aeruginosa is 8 µM. Also, in the data set with Erythrocyte, the HC10 was 237 µM. For the same compound, the CC50 at 1 h in [2] was determined as 42 µM.
For H-IKIKRRRFKIKI-NH2, the MIC with Staphylococcus aureus was determined as 32 µM; in the data set with Bacillus subtilis it was 4 µM; in data set [1] it was 8 µM; with Enterococcus faecalis it was 64 µM; with Klebsiella pneumoniae, 64 µM; in the data set with Escherichia coli it was 64 µM. For the same compound, the MIC with Pseudomonas aeruginosa was 16 µM. The HC10 in the data set with Erythrocyte was greater than 256 µM. The half-maximal cytotoxic concentration (CC50) at 1 h in [2] is greater than 128 µM.
For H-IRIRIRRRRFRIRIRI-NH2, the minimal inhibitory concentration (MIC) was 8 µM with Staphylococcus aureus; 2 µM in the data set with Bacillus subtilis; 2 µM in data set [1]; 4 µM in the data set on Enterococcus faecalis; 8 µM in the data set on Klebsiella pneumoniae; 8 µM in the data set on Escherichia coli. Besides, in the data set with Pseudomonas aeruginosa, the MIC was 4 µM. Besides, the HC10 in the data set with Erythrocyte came out at 56 µM. Besides, the CC50 at 1 h in data set [2] was determined as 12.3 µM.
On to H-IRIRRRRFRIRI-NH2, for which the MIC came to 4 µM in the data set with Staphylococcus aureus; 4 µM in the data set with Bacillus subtilis; 4 µM in data set [1]; 16 µM with Enterococcus faecalis; 16 µM in the data set with Klebsiella pneumoniae; 16 µM in the data set with Escherichia coli. The MIC with Pseudomonas aeruginosa is 4 µM. The HC10 with Erythrocyte was greater than 256 µM. In addition, in data set [2], the CC50 at 1 h stood at 128 µM.
As for H-LKLKRRRFKLKL-NH2, the MIC was determined as 32 µM with Staphylococcus aureus; 4 µM with Bacillus subtilis; 8 µM in [1]; 128 µM with Enterococcus faecalis; 128 µM in the data set on Klebsiella pneumoniae; 32 µM in the data set on Escherichia coli. The minimum inhibitory concentration (MIC) in the data set with Pseudomonas aeruginosa came out at 64 µM. The HC10 in the data set on Erythrocyte is greater than 256 µM. The CC50 at 1 h in data set [2] is greater than 128 µM.
Take H-RIRIRRRFIRIR-NH2: the MIC with Staphylococcus aureus came to 8 µM; in the data set on Bacillus subtilis, 4 µM; in [1], 4 µM; in the data set with Enterococcus faecalis, 32 µM; with Klebsiella pneumoniae it was 64 µM; in the data set with Escherichia coli, 8 µM. In addition, the MIC in the data set on Pseudomonas aeruginosa stood at 16 µM. Moreover, in the data set on Erythrocyte, the HC10 was greater than 256 µM. Further, the CC50 at 1 h in data set [2] was greater than 128 µM.
With H-VRVRRRRFRVRV-NH2, the MIC with Staphylococcus aureus was 16 µM; in the data set with Bacillus subtilis, 4 µM; in data set [1] it was 8 µM; in the data set on Enterococcus faecalis, greater than 128 µM; with Klebsiella pneumoniae, 64 µM; with Escherichia coli, 32 µM. Further, the minimum inhibitory concentration (MIC) with Pseudomonas aeruginosa worked out at 64 µM. Besides, the HC10 in the data set on Erythrocyte is greater than 256 µM. Besides, the CC50 at 1 h in data set [2] was greater than 128 µM.
On to H-WKWKRRRFKWKW-NH2, for which the minimal inhibitory concentration (MIC) with Staphylococcus aureus was 4 µM; in the data set with Bacillus subtilis it was 2 µM; in data set [1], 4 µM; in the data set with Enterococcus faecalis, 16 µM; with Klebsiella pneumoniae it was 8 µM; in the data set with Escherichia coli it was 4 µM. For the same compound, in the data set on Pseudomonas aeruginosa, the MIC is 4 µM. The HC10 in the data set with Erythrocyte is greater than 256 µM. In addition, in data set [2], the CC50 at 1 h is 120 µM.
In the case of H-WKWKWKRRRFKWKWKW-NH2, the minimal inhibitory concentration (MIC) with Staphylococcus aureus was found to be 8 µM; in the data set with Bacillus subtilis it was 4 µM; in data set [1] it was 4 µM; in the data set on Enterococcus faecalis, 8 µM; with Klebsiella pneumoniae, 8 µM; in the data set with Escherichia coli, 8 µM. Besides, the MIC with Pseudomonas aeruginosa was determined as 4 µM. Besides, the HC10 in the data set with Erythrocyte is greater than 256 µM. Also, the CC50 at 1 h in data set [2] was 10.4 µM.
For the compound H-WRWRRRRFRWRW-NH2, the minimum inhibitory concentration (MIC) with Staphylococcus aureus came to 8 µM; with Bacillus subtilis it was 2 µM; in data set [1] it was 4 µM; in the data set with Enterococcus faecalis, 8 µM; in the data set on Klebsiella pneumoniae, 8 µM; in the data set on Escherichia coli, 8 µM. Also, the minimal inhibitory concentration (MIC) with Pseudomonas aeruginosa was 8 µM. Besides, the HC10 in the data set with Erythrocyte is greater than 256 µM. In addition, in [2], the CC50 at 1 h was 8.7 µM.
